In PubChem BioAssay AID274 (DTP/NCI, 2004):
“And” between values parts separate entries of the source, which are not always exact repeats. Equal entries are not always repeated. Toxic doses and inconclusive results are not listed. Numbered stars: 1 amine (or outer) side, 2 acyl side, 3 side chain; on linkers, the order of the positions; unused ones are H or OH. Bridge positions count the residues as written; N and C are the ends. Square brackets hold non-standard residues; d marks the D form. Peptide text beside a SMILES is read from it. I, II: the chains in the order shown. Actinocin(1to9) = Cc1c2oc3c(C)ccc(C(=O)[*:2])c3nc-2c(C(=O)[*:1])c(N)c1=O; NMeV = CN[CH](C(=O)O)C(C)C; Aze = O=C(O)[CH]1CCN1; Sar = CNCC(=O)O

System: BDF1 mice, Lewis lung carcinoma iv, survival T/C
Assay: NCI In Vivo Anticancer Drug Screen. Data for tumor model Lewis Lung Carcinoma (intravenous) in B6D2F1 (BDF1) mice
Conditions: endpoint: median survival time, higher = longer survival
Procedure: The antitumor activity of compounds was measured in mice bearing transplantable tumors. Survival or tumor size were measured and the results are expressed as the measurement made in the treated group (T) divided by the measurement made in the vehicle treated control group (C). The tumor model used in this assay is Lewis Lung Carcinoma (intravenous) in B6D2F1 (BDF1) mice

[1] = dose: 2.0 mg/kg/injection, schedule: Q01DX009 (ip), vehicle: saline
[2] = dose: 25.0 mg/kg/injection, schedule: Q01DX009 (ip), vehicle: Klucel (hydroxypropylcellulose) (HPC)
[3] = dose: 50.0 mg/kg/injection, schedule: Q01DX009 (ip), vehicle: Klucel (hydroxypropylcellulose) (HPC)
[4] = dose: 100.0 mg/kg/injection, schedule: Q01DX009 (ip), vehicle: Klucel (hydroxypropylcellulose) (HPC)
[5] = dose: 6.25 mg/kg/injection, schedule: Q01DX009 (ip), vehicle: saline
[6] = dose: 12.5 mg/kg/injection, schedule: Q01DX009 (ip), vehicle: saline
[7] = dose: 25.0 mg/kg/injection, schedule: Q01DX009 (ip), vehicle: saline
[8] = dose: 12.5 mg/kg/injection, schedule: Q01DX009 (ip), vehicle: saline with Tween-80
[9] = dose: 50.0 mg/kg/injection, schedule: Q01DX009 (ip), vehicle: saline
[10] = dose: 100.0 mg/kg/injection, schedule: Q01DX009 (ip), vehicle: saline
[11] = dose: 12.5 mg/kg/injection, schedule: Q01DX009 (ip), vehicle: Klucel (hydroxypropylcellulose) (HPC)
[12] = dose: 200.0 mg/kg/injection, schedule: Q01DX009 (ip), vehicle: Klucel (hydroxypropylcellulose) (HPC)
[13] = dose: 6.25 mg/kg/injection, schedule: Q01DX009 (ip), vehicle: saline with Tween-80

For `Nc1nc(=S)c2[nH]cnc2[nH]1`, the T/C (dose: 0.25 mg/kg/injection, schedule: Q01DX009 (ip), vehicle: saline) was 105 % of control, the T/C (dose: 0.5 mg/kg/injection, schedule: Q01DX009 (ip), vehicle: saline) was 114 % of control and the T/C (dose: 1.0 mg/kg/injection, schedule: Q01DX009 (ip), vehicle: saline) was 107 % of control. For the same compound, the T/C [1] was 92 % of control.
With `O=c1[nH]c(=O)n([C@H]2CCCO2)cc1F` the T/C [2] was 106 % of control, the T/C [3] was 104 % of control and the T/C [4] was 100 % of control.
In the case of `CCOC(=O)C(N)C[S][Sn]([CH3])([CH3])[Cl]` (configuration not stated), the T/C [5] is reported as 100 % of control, the T/C [6] is reported as 102 % of control and the T/C [7] is reported as 95 % of control.
With `CCS(=O)(=O)OCCCCOS(=O)(=O)CC` the T/C (dose: 3.13 mg/kg/injection, schedule: Q01DX009 (ip), vehicle: saline) was 99 % of control and the T/C [5] was 103 % of control.
With `COC1=C(NC(C)=O)C(=O)c2nc(-c3nc(C(=O)O)c(C)c(-c4ccc(OC)c(OC)c4O)c3N)ccc2C1=O` the T/C (dose: 6.0 mg/kg/injection, schedule: Q01DX009 (ip), vehicle: Klucel (hydroxypropylcellulose) (HPC)) was 101 % of control, the T/C (dose: 12.0 mg/kg/injection, schedule: Q01DX009 (ip), vehicle: Klucel (hydroxypropylcellulose) (HPC)) was 96 % of control and the T/C [2] was 98 % of control. For the same compound, the T/C [3] was 97 % of control.
`S=P(N1CC1)(N1CC1)N1CC1` was tested, and the T/C (dose: 1.0 mg/kg/injection, schedule: Q01DX009 (ip), vehicle: saline with Tween-80) was 106 % of control and 110 % of control and 116 % of control, the T/C (dose: 2.0 mg/kg/injection, schedule: Q01DX009 (ip), vehicle: saline with Tween-80) was 113 % of control (2×) and 116 % of control and the T/C (dose: 4.0 mg/kg/injection, schedule: Q01DX009 (ip), vehicle: saline with Tween-80) was 118 % of control and 119 % of control and 123 % of control. For the same compound, the T/C (dose: 8.0 mg/kg/injection, schedule: Q01DX009 (ip), vehicle: saline with Tween-80) was 100 % of control and 110 % of control and the T/C (dose: 16.0 mg/kg/injection, schedule: Q01DX009 (ip), vehicle: saline with Tween-80) was 112 % of control.
`CC1(C)OC1CS(=O)c1ccccc1` (configuration not stated) was tested, and the T/C [8] was 105 % of control, the T/C (dose: 25.0 mg/kg/injection, schedule: Q01DX009 (ip), vehicle: saline with Tween-80) was 99 % of control and the T/C (dose: 50.0 mg/kg/injection, schedule: Q01DX009 (ip), vehicle: saline with Tween-80) was 91 % of control. The T/C (dose: 100.0 mg/kg/injection, schedule: Q01DX009 (ip), vehicle: saline with Tween-80) was 96 % of control, the T/C (dose: 200.0 mg/kg/injection, schedule: Q01DX009 (ip), vehicle: saline with Tween-80) was 95 % of control and the T/C (dose: 400.0 mg/kg/injection, schedule: Q01DX009 (ip), vehicle: saline with Tween-80) was 114 % of control.
In the case of `CC(C)n1cc2c(N)ncnc2n1`, the T/C [7] is reported as 107 % of control, the T/C [9] is reported as 112 % of control and the T/C [10] is reported as 117 % of control.
In the case of `CCN(CC)CCOC(=O)Cc1cccc2c(=O)cc(-c3ccccc3)oc12`, the T/C [6] is reported as 109 % of control, the T/C [7] is reported as 105 % of control and the T/C [9] is reported as 105 % of control. The T/C [10] was 101 % of control.
`CN1N=C(N)c2cn(C3OC(COP(=O)(O)O)C(O)C3O)c3ncnc1c23` (configuration not stated) was tested, and the T/C (dose: 0.39 mg/kg/injection, schedule: Q01DX009 (ip), vehicle: water) was 100 % of control, the T/C (dose: 0.78 mg/kg/injection, schedule: Q01DX009 (ip), vehicle: water) was 92 % of control and the T/C (dose: 1.56 mg/kg/injection, schedule: Q01DX009 (ip), vehicle: water) was 86 % of control. The T/C (dose: 3.12 mg/kg/injection, schedule: Q01DX009 (ip), vehicle: water) was 93 % of control, the T/C (dose: 6.25 mg/kg/injection, schedule: Q01DX009 (ip), vehicle: water) was 99 % of control and the T/C (dose: 12.5 mg/kg/injection, schedule: Q01DX009 (ip), vehicle: water) was 99 % of control.
`CC(C)(C)C1CCCCC1` was tested, and the T/C [11] was 94 % of control, the T/C [2] was 98 % of control and the T/C [3] was 95 % of control. The T/C [4] was 102 % of control and the T/C [12] was 95 % of control.
For `Cc1cc(O)c(C(C)C)cc1S(=O)(=O)O` (tested in a mixture with another compound), the T/C [4] was 90 % of control and the T/C [12] was 102 % of control.
`CC(C)C1OC(=O)/C=C/C=C/C=C/C=C/C=C/CC(O)C(C)C(O)CC(O)CC(O)CC(O)CC(O)CC(O)CC(O)/C=C/C1C` (configuration not stated) was tested, and the T/C [5] was 111 % of control, the T/C [6] was 104 % of control and the T/C [7] was 111 % of control.
In the case of `O=C1c2ccccc2C(=O)c2c(NCCNCCO)ccc(O)c21`, the T/C (dose: 2.5 mg/kg/injection, schedule: Q01DX009 (ip), vehicle: suspension in saline) is reported as 92 % of control, the T/C (dose: 5.0 mg/kg/injection, schedule: Q01DX009 (ip), vehicle: suspension in saline) is reported as 88 % of control and the T/C (dose: 10.0 mg/kg/injection, schedule: Q01DX009 (ip), vehicle: suspension in saline) is reported as 88 % of control. The T/C (dose: 20.0 mg/kg/injection, schedule: Q01DX009 (ip), vehicle: suspension in saline) was 97 % of control, the T/C (dose: 40.0 mg/kg/injection, schedule: Q01DX009 (ip), vehicle: suspension in saline) was 103 % of control and the T/C (dose: 80.0 mg/kg/injection, schedule: Q01DX009 (ip), vehicle: suspension in saline) was 102 % of control.
In the case of `Cc1nc(N)nc(N)c1-c1ccc(Cl)c(Cl)c1`, the T/C (dose: 0.31 mg/kg/injection, schedule: Q01DX009 (ip), vehicle: saline) is reported as 108 % of control, the T/C (dose: 0.63 mg/kg/injection, schedule: Q01DX009 (ip), vehicle: saline) is reported as 109 % of control and the T/C (dose: 1.25 mg/kg/injection, schedule: Q01DX009 (ip), vehicle: saline) is reported as 113 % of control. The T/C (dose: 2.5 mg/kg/injection, schedule: Q01DX009 (ip), vehicle: saline) was 120 % of control and the T/C (dose: 5.0 mg/kg/injection, schedule: Q01DX009 (ip), vehicle: saline) was 109 % of control.
`Nc1nc([Se])c2ncn(C3OC(CO)C(O)C3O)c2n1` (configuration not stated) was tested, and the T/C [1] was 96 % of control, the T/C (dose: 4.0 mg/kg/injection, schedule: Q01DX009 (ip), vehicle: saline) was 99 % of control and the T/C (dose: 8.0 mg/kg/injection, schedule: Q01DX009 (ip), vehicle: saline) was 118 % of control.
`C1OC1CO[C@@H]1CO[C@H]2[C@@H]1OC[C@H]2OCC1CO1` (some centres not stated) was tested, and the T/C [6] was 113 % of control, the T/C [7] was 100 % of control and the T/C [9] was 123 % of control. For the same compound, the T/C [10] was 177 % of control.
With `CC(=O)NC(CCc1ccc(Cl)c(Cl)c1)c1cccc(O)c(=O)c1` (configuration not stated) the T/C (dose: 6.25 mg/kg/injection, schedule: Q01DX009 (ip), vehicle: Klucel (hydroxypropylcellulose) (HPC)) was 97 % of control, the T/C [11] was 99 % of control and the T/C [2] was 95 % of control. For the same compound, the T/C [3] was 96 % of control.
With `Cc1c2oc3c(C)ccc(C(=O)NC4C(=O)NC(C(C)C)C(=O)N5CCCC5C(=O)N(C)CC(=O)N(C)C(C(C)C)C(=O)OC4C)c3nc-2c(C(=O)NC2C(=O)NC(C(C)C)C(=O)N3CCC3C(=O)N(C)CC(=O)N(C)C(C(C)C)C(=O)OC2C)c(N)c1=O` (configuration not stated) (I: TV[Aze][Sar][NMeV] / II: TVP[Sar][NMeV]; ester I:1-I:C, II:1-II:C; linker I:N-II:N via Actinocin(1to9); configuration not given here) the T/C (dose: 37.5 micrograms/kg/injection, schedule: Q01DX009 (ip), vehicle: saline + alcohol) was 105 % of control, the T/C (dose: 75.0 micrograms/kg/injection, schedule: Q01DX009 (ip), vehicle: saline + alcohol) was 113 % of control and the T/C (dose: 194.0 micrograms/kg/injection, schedule: Q04DX003 (ip), vehicle: saline + alcohol) was 92 % of control. The T/C (dose: 270.0 micrograms/kg/injection, schedule: Q04DX003 (ip), vehicle: saline + alcohol) was 95 % of control, the T/C (dose: 324.0 micrograms/kg/injection, schedule: Q04DX003 (ip), vehicle: saline + alcohol) was 105 % of control and the T/C (dose: 450.0 micrograms/kg/injection, schedule: Q04DX003 (ip), vehicle: saline + alcohol) was 104 % of control. For the same compound, the T/C (dose: 540.0 micrograms/kg/injection, schedule: Q04DX003 (ip), vehicle: saline + alcohol) was 105 % of control, the T/C (dose: 648.0 micrograms/kg/injection, schedule: Q01DX001 (ip), vehicle: saline + alcohol) was 94 % of control and the T/C (dose: 1080.0 micrograms/kg/injection, schedule: Q01DX001 (ip), vehicle: saline + alcohol) was 94 % of control.
With `CCc1nc(N)nc(N)c1-c1ccc(Cl)c([N+](=O)[O-])c1` the T/C (dose: 1.56 mg/kg/injection, schedule: Q01DX009 (ip), vehicle: saline with Tween-80) was 100 % of control, the T/C (dose: 3.12 mg/kg/injection, schedule: Q01DX009 (ip), vehicle: saline with Tween-80) was 98 % of control and the T/C [13] was 111 % of control. For the same compound, the T/C [8] was 111 % of control.
In the case of `Cc1cc(N(CC(C)Br)CC(C)Br)ccc1N=Nc1ccccc1C(=O)O` (configuration not stated), the T/C [13] is reported as 117 % of control and the T/C [8] is reported as 114 % of control.
With `c1cn[nH]c1` the T/C [7] was 121 % of control and the T/C [9] was 110 % of control.
`S=c1c2[nH]cnc2ncn1CCSC1=NC=NC2=NC=NC21` (configuration not stated) was tested, and the T/C [6] was 115 % of control, the T/C [7] was 100 % of control and the T/C [9] was 96 % of control.
